Patent publication US10030016B2 (Sunesis Pharmaceuticals, Inc., priority 2009, dated 2018)
Where two headings read alike, the source gives them in different places.

Legend:
[1] = system: phospho-akt (Thr308) in PC-3 cells; assay: Inhibition of phospho-akt (Thr308) in PC-3 cells, MSD phospho-akt 308 ELISA kit; assay type: cell-based; details: Homo sapiens, inhibition of P308 Akt in PC-3 cells, 2 hours, no serum, MSD, read-out: EC50
Procedure, shortened: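 PC-3 cells were seeded overnight in growth medium with 10% FBS, then exposed to compound serially diluted threefold in serum-free medium for 2 hours. Lysates were captured overnight at 4 degrees on MSD plates and phospho-Akt Thr308 was detected electrochemiluminescently, against DMSO high and 5 μM wortmannin low controls.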

[2] = target: PDK1 (Homo sapiens (Human), UniProt O15530); assay: PDK1 kinase assay (coupled PDK1/AKT/FAM-crosstide assay, IMAP fluorescence polarization); assay type: biochemical; details: inhibition of phospo-PDK1 in vitro
Sequence of PDK1 (O15530 51-359): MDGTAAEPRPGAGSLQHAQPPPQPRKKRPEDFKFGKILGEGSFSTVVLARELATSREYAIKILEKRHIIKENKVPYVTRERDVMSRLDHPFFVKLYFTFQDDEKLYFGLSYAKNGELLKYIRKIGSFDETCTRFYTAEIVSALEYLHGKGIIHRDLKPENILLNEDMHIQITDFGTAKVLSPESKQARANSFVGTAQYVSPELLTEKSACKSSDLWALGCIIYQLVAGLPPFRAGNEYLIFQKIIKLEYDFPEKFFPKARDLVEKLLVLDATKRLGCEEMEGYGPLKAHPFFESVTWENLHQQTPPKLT
Procedure: A PDK1 kinase assay was performed as follows. PDK1 (amino acids 51-359) and AKT2 (amino acids 140-467 fused to PIFtide, amino acids […]) were expressed as N-terminally tagged GST fusion proteins in insect cells and purified to homogeneity. Enzyme activity was determined in a coupled PDK1/AKT/FAM-crosstide assay and phosphorylation of FAM-crosstide was determined by standard IMAP protocol (Molecular Devices). For inhibition studies, compounds were titrated 4-fold in DMSO and diluted 40-fold into assay buffer (10 mM Tris HCl pH7.2; 10 mM MgCl2; 0.01% Triton X-100; 1 mM DTT) containing PDK1, AKT2, and FAM-crosstide (final concentrations: 0.75 nM PDK1, 10 nM unphosphorylated AKT2, and 100 nM crosstide substrate). The kinase reaction was initiated by adding ATP to a final concentration of 40 μM of PDK1 and incubated at 25° C. for 30 min. To detect assay product, the kinase reaction was combined with Progressive Binding Solution (1:600 Progressive Binding Reagent, 50% Buffer A, 50% Buffer B, Molecular Devices) in a 1:3 ratio. The mixture was incubated for 2 hours at 25° C. and the plate was scanned on an Analyst AD with excitation at 485 nm and emission at 530 nm. The fluorescence polarization value “P” is defined by the equation below. The value “mP” is generated by multiplying the P value for each reaction well by a factor of 1000. The value “ΔmP” for each well is the mP value for that well minus the mP value for the average negative control. P=(Fpar−Fperp)/(Fpar+Fperp) Eq.:
Where “par” is fluorescence intensity parallel to the excitation plane; and “perp” is fluorescence intensity perpendicular to the excitation plane. ΔmP values were plotted as a function of compound concentration and the data were analyzed with a 4-parameter fit using GraphPad Prism software.

SMILES	EC50 [1] [µM]	IC50 [2] [µM]	EC50 ([1]; PC-3, 2 h) [µM]
C=C(C)c1cnc(NCc2ccc(-c3ccc4ncnc(N)c4c3)s2)c(C(=O)NCc2ccc(F)c(F)c2)c1 [Ex. 8.13, 2-({[5-(4-aminoquinazolin-6-yl)thiophen-2-yl]methyl}amino)-N-(3,4-difluorobenzyl)-5-(prop-1-en-2-yl)pyridine-3-carboxamide]	< 1	< 0.1	–
Nc1ncnc2ccc(-c3ccc(CNc4nc5ccccc5cc4C(=O)NCc4ccc(F)c(F)c4)s3)cc12 [Ex. 8.14.1, 2-({[5-(4-aminoquinazolin-6-yl)thiophen-2-yl]methyl}amino)-N-(3,4-difluorobenzyl) quinoline-3-carboxamide]	< 1	< 0.1	–
Nc1ncnc2ccc(-c3ccc(CNc4nc5c(cc4C(=O)NCc4ccc(F)c(F)c4)CCC5)s3)cc12 [Ex. 8.15.1, 2-({[5-(4-aminoquinazolin-6-yl)thiophen-2-yl]methyl}amino)-N-(3,4-difluorobenzyl)-6,7-dihydro-5H-cyclopenta [b]pyridine-3-carboxamide]	1 to 10	0.1 to 1	–
Nc1ncnc2ccc(-c3ccc(CNc4nccnc4C(=O)NCc4ccc(F)c(F)c4)s3)cc12 [Ex. 10.1]	1 to 10	< 0.1	–
Nc1ncnc2ccc(-c3ccc(CNc4ncc(-c5ccccc5)nc4C(=O)NCc4ccc(F)c(F)c4)s3)cc12 [Ex. 10.3, 3-({[5-(4-aminoquinazolin-6-yl)thiophen-2-yl]methyl}amino)-N-(3,4-difluorobenzyl)-6-phenylpyrazine-2-carboxamide]	> 10	> 5	–
C=C(C)c1cnc(NCc2ccc(-c3ccc4ncnc(N)c4c3)s2)c(C(=O)NCc2ccc(F)c(F)c2)n1 [Ex. 10.5, 3-({[5-(4-aminoquinazolin-6-yl)thiophen-2-yl]methyl}amino)-N-(3,4-difluorobenzyl)-6-(prop-1-en-2-yl)pyrazine-2-carboxamide]	1 to 10	< 0.1	–
C/C=C/c1cnc(NCc2ccc(-c3ccc4ncnc(N)c4c3)s2)c(C(=O)NCc2ccc(F)c(F)c2)n1 [Ex. 10.6, 3-({[5-(4-aminoquinazolin-6-yl)thiophen-2-yl]methyl}amino)-N-(3,4-difluorobenzyl)-6-[(1E)-prop-1-en-1-yl] pyrazine-2-carboxamide]	–	0.1 to 1	1 to 10
CCCc1cnc(NCc2ccc(-c3ccc4ncnc(N)c4c3)s2)c(C(=O)NCc2ccc(F)c(F)c2)n1 [Ex. 10.7, 3-({[5-(4-aminoquinazolin-6-yl)thiophen-2-yl]methyl}amino)-N-(3,4-difluorobenzyl)-6-propylpyrazine-2-carboxamide]	1 to 10	1 to 5	–
COCC#Cc1cnc(NCc2ccc(-c3ccc4ncnc(N)c4c3)s2)c(C(=O)N[C@@H](C)c2ccc(F)c(F)c2)n1 [Ex. 10.8, 3-({[5-(4-aminoquinazolin-6-yl)thiophen-2-yl]methyl}amino)-N-[(1S)-1-(3,4-difluorophenyl)ethyl]-6-(3-methoxyprop-1-yn-1-yl)pyrazine-2-carboxamide]	< 1	0.1 to 1	–
Cn1cc(C(=O)NCc2ccc(F)c(F)c2)c(NCc2ccc(-c3ccc4ncnc(N)c4c3)s2)n1 [Ex. 11.1]	1 to 10	< 0.1	–
C[C@H](NC(=O)c1cn(-c2ccccc2)nc1NCc1ccc(-c2ccc3ncnc(N)c3c2)s1)c1ccc(F)c(F)c1 [Ex. 11.2]	> 10	0.1 to 1	–
C[C@H](NC(=O)c1cn(-c2ccccn2)nc1NCc1ccc(-c2ccc3ncnc(N)c3c2)s1)c1ccc(F)c(F)c1 [Ex. 11.3]	< 1	< 0.1	–
Nc1ncnc2ccc(-c3ccc(CNc4ncsc4C(=O)NCc4ccc(F)c(F)c4)s3)cc12 [Ex. 12.1]	> 10	< 0.1	–
Nc1ncnc2ccc(-c3csc(Nc4ncccc4C(=O)NCc4ccc(F)c(F)c4)n3)cc12 [Ex. 13, 2-(4-(4-aminoquinazolin-6-yl)thiazol-2-ylamino)-N-(3,4-difluorobenzyl)-nicotinamide]	> 10	1 to 5	–
O=C(NCc1ccc(F)c(F)c1)c1cccnc1NCc1cccc(-c2c[nH]c3ncccc23)c1 [Example 1.5, 2-(3-(1H-pyrrolo[2,3-b]pyridin-3-yl)benzylamino)-N-(3,4-difluorobenzyl)nicotinamide]	1 to 10	< 0.1	–
O=C(NCC1CCCC1)c1cccnc1NCc1cccc(-c2c[nH]c3ncccc23)c1 [Example 1.8, 2-(3-(1H-pyrrolo[2,3-b]pyridin-3-yl)benzylamino)-N-(cyclopentylmethyl)nicotinamide]	1 to 10	0.1 to 1	–
CC(C)NC(=O)c1cccnc1NCc1cccc(-c2c[nH]c3ncccc23)c1 [Example 1.10, N-(propan-2-yl)-2-{[3-(1H-pyrrolo [2,3-b]pyridin-3-yl)benzyl]amino} pyridine-3-carboxamide]	1 to 10	> 5	–
O=C(c1cccnc1NCc1cccc(-c2c[nH]c3ncccc23)c1)N1CCCCC1 [Example 1.13, Piperidin-1-yl(2-{[3-(1H-pyrrolo [2,3-b]pyridin-3-yl)benzyl]amino}pyridin-3-yl)methanone]	> 10	> 5	–
O=C(Nc1ccc(F)c(F)c1)c1cccnc1NCc1cccc(-c2c[nH]c3ncccc23)c1 [Example 1.14, N-(3,4-difluorophenyl)-2-{[3-(1H-pyrrolo[2,3-b]pyridin-3-yl)benzyl]amino}pyridine-3-carboxamide]	–	0.1 to 1	1 to 10
CNC(=O)c1cccnc1NCc1cccc(-c2c[nH]c3ncccc23)c1 [Example 1.15, N-methyl-2-{[3-(1H-pyrrolo [2,3-b]pyridin-3-yl)benzyl]amino}pyridine-3-carboxamide]	> 10	> 5	–

Second part, the compound after the results:

EC50 [1] [µM]	IC50 [2] [µM]	EC50 ([1]; PC-3, 2 h) [µM]	SMILES
> 10	0.1 to 1	–	Nc1ncnc2ccc(-n3cc(CNc4ncccc4C(=O)NCc4ccc(F)c(F)c4)nn3)cc12 [Ex. 9.1, 2-((1-(4-aminoquinazolin-6-yl)-1H-1,2,3-triazol-4-yl)methylamino)-N-(3,4-difluorobenzyl)nicotinamide]
1 to 10	< 0.1	–	Nc1ncnc2ccc(-c3ccc(CNc4ncc(Br)nc4C(=O)NCc4ccc(F)c(F)c4)s3)cc12 [Ex. 10.2, 3-({[5-(4-aminoquinazolin-6-yl)thiophen-2-yl]methyl}amino)-6-bromo-N-(3,4-difluorobenzyl)pyrazine-2-carboxamide]
> 10	0.1 to 1	–	CC(C)c1cnc(NCc2ccc(-c3ccc4ncnc(N)c4c3)s2)c(C(=O)NCc2ccc(F)c(F)c2)n1 [Ex. 10.4, 3-({[5-(4-aminoquinazolin-6-yl)thiophen-2-yl]methyl}amino)-N-(3,4-difluorobenzyl)-6-(propan-2-yl)pyrazine-2-carboxamide]
< 1	0.1 to 1	–	C[C@H](NC(=O)c1nc(C#N)cnc1NCc1ccc(-c2ccc3ncnc(N)c3c2)s1)c1ccc(F)c(F)c1 [Ex. 10.9, 3-({[5-(4-aminoquinazolin-6-yl)thiophen-2-yl]methyl}amino)-6-cyano-N-[(1S)-1-(3,4-difluorophenyl)ethyl] pyrazine-2-carboxamide]
1 to 10	< 0.1	–	O=C(NCc1ccc(F)cc1)c1cccnc1NCc1cccc(-c2c[nH]c3ncccc23)c1 [Example 1.6, 2-(3-(1H-pyrrolo[2,3-b]pyridin-3-yl)benzylamino)-N-(4-fluorobenzyl)nicotinamide]
> 10	1 to 5	–	O=C(NCc1ccc(C(F)(F)F)cc1)c1cccnc1NCc1cccc(-c2c[nH]c3ncccc23)c1 [Example 1.7, 2-(3-(1H-pyrrolo[2,3-b]pyridin-3-yl)benzylamino)-N-(4-(trifluoromethyl)benzyl) nicotinamide]
1 to 10	> 5	–	CCCNC(=O)c1cccnc1NCc1cccc(-c2c[nH]c3ncccc23)c1 [Example 1.9, N-propyl-2-{[3-(1H-pyrrolo[2,3-b]pyridin-3-yl)benzyl]amino}pyridine-3-carboxamide]
1 to 10	> 5	–	CCNC(=O)c1cccnc1NCc1cccc(-c2c[nH]c3ncccc23)c1 [Example 1.11, N-ethyl-2-{[3-(1H-pyrrolo[2,3-b]pyridin-3-yl)benzyl]amino}pyridine-3-carboxamide]
–	0.1 to 1	> 10	O=C(NCc1ccc(F)cc1)c1cccnc1NCc1ccc(-c2c[nH]c3ncccc23)s1 [Example 1.16, 2-(((5-(1H-pyrrolo[2,3-b]pyridin-3-yl)thiophen-2-yl)methyl)amino)-N-(4-fluorobenzyl)nicotinamide]
